What all share (details): incubation time: 72 h
Assay [1] relates to HDQ-P1. Put plainly: normalised viability (% of control), CellTiter-Blue; higher = more viable cells (about 100 = DMSO control). On the procedure: (§1)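 DSRT, CellTiter-Blue viability, 72 h incubation. Signal is normalised to DMSO and benzethonium chloride controls. Value is the normalised response at dose 9.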
Assay [2] deals with DU-4475. Described as above. On the procedure:
as §1

In assay [3] the test system is CAL-51. Described as above. On the procedure: as §1
Assay [4] deals with CAL-85-1. Described as above. On the procedure: as §1
For assay [5], the system named is MDA-MB-453. The description is as above. On the procedure:
as §1

In assay [6] the test system is CAL-148. The description is as above. Here is the method: as §1
Assay [7] has as its system MDA-MB-436. Kind of assay: normalised response (% of control), CellTiter-Glo; higher = more viable cells (100 = DMSO, 0 = benzethonium chloride kill control). In outline: (§2)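 In 384-well plates holding compound at 5 concentrations in 10-fold steps over a 10,000-fold range specific to each compound, breast cancer cell lines were seeded as 20 µl suspension and incubated 72 h. CellTox Green fluorescence was measured at 485/520 nm, after which CellTiter-Glo luminescence was measured following 10 min at room temperature. Plate signals were normalised to 0.1 % DMSO (100) and a positive kill control (0), and each value is the normalised signal at a single concentration.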
(ATP-based viability assays read luminescence as a measure of living cells.)

Assay [8] deals with DU-4475. The description is as above. In outline:
as §2

The subject of assay [9] is SK-BR-3. Described as above. In short, it runs like this:
as §2

Assay [10] deals with MFM-223. The assay is described as above. In outline:
as §2

Assay [11] relates to MDA-MB-468. Described as above. In short, it runs like this:
as §2

“And” between values parts separate entries of the source, which are not always exact repeats. Identical values can stand only once.

For the compound `COc1cc(Nc2c(C#N)cnc3cc(OCCCN4CCN(C)CC4)c(OC)cc23)c(Cl)cc1Cl` [Bosutinib] (10000 nM), the normalised viability in assay [1] amounted to 4.45%; in assay [2], 4.38%; in [3] it was 11.1%; in [4], 12.4%; in assay [5], 4.44%; in assay [6], 9.6%.

Turning to `C/C(=C\c1csc(C)n1)[C@@H]1C[C@@H]2O[C@]2(C)CCC[C@H](C)[C@H](O)[C@@H](C)C(=O)C(C)(C)[C@@H](O)CC(=O)N1` [Ixabepilone] (100 nM), the normalised response in [7] was 101%; in [8] it was 102%; in assay [9], 106%; in assay [10], 105%; in assay [11] it was 29.1%.

As for `Cn1cc(C2=C(c3cn(C4CCN(Cc5ccccn5)CC4)c4ccccc34)C(=O)NC2=O)c2ccccc21` [Enzastaurin] (10000 nM), the normalised viability was 78.1% in [1]; 86% in assay [2]; 89.8% in assay [3]; 88.4% in [4]; 51.9% in assay [5]; 67.4% in [6].

Consider `CC1(C)CCC(c2ccc(Cl)cc2)=C(CN2CCN(c3ccc(C(=O)NS(=O)(=O)c4ccc(N[C@H](CCN5CCOCC5)CSc5ccccc5)c(S(=O)(=O)C(F)(F)F)c4)cc3)CC2)C1` [Navitoclax] (10000 nM), for which the normalised viability in [1] is 60.2%; in assay [2], 4.02%; in assay [3], 77%; in assay [4] it was 71.3%; in [5] it was 52.7%; in assay [6] it was 66.7%.

On to `Cn1cc(C2=C(c3cn(C4CCN(Cc5ccccn5)CC4)c4ccccc34)C(=O)NC2=O)c2ccccc21` [Enzastaurin] (1000 nM), for which the normalised response was found to be 109% in assay [7]; 106% in [8]; 97.7% in [9]; 97.5% in [10]; 96.3% in assay [11].

As to `CNC(=O)c1ccccc1Sc1ccc2c(/C=C/c3ccccn3)n[nH]c2c1` [Axitinib] (10000 nM), the normalised viability came to 67.3% in assay [1]; 21.1% in assay [2]; 37.3% in assay [3]; 67.2% in [4]; 46.2% in [5]; 42.1% in [6].

Consider `CC(C)(C)NC(=O)[C@H]1CC[C@H]2[C@@H]3CC[C@H]4NC(=O)C=C[C@]4(C)[C@H]3CC[C@]12C` [Finasteride] (1000 nM), for which the normalised response in assay [7] worked out at 108%; in [8], 96.8%; in assay [9] it was 102%; in [10] it was 103%; in assay [11], 104%.

On to `C=CCn1c(=O)c2cnc(Nc3ccc(N4CCN(C)CC4)cc3)nc2n1-c1cccc(C(C)(C)O)n1` [MK1775] (1000 nM), for which the normalised response in assay [7] turned out to be 30.8%; in assay [8], 65.6%; in [9], 14.4%; in [10] it was 41.2%; in assay [11] it was 43.4%.

With `CC(C)C[C@H](NC(=O)[C@@H](COC(C)(C)C)NC(=O)[C@H](Cc1ccc(O)cc1)NC(=O)[C@H](CO)NC(=O)[C@H](Cc1c[nH]c2ccccc12)NC(=O)[C@H](Cc1cnc[nH]1)NC(=O)[C@@H]1CCC(=O)N1)C(=O)N[C@@H](CCCNC(=N)N)C(=O)N1CCC[C@H]1C(=O)NNC(N)=O` [Goserelin] (10000 nM), the normalised viability in [1] is 140%; in assay [2], 104%; in [3] it was 109%; in assay [4], 84.9%; in assay [5], 89.8%; in [6] it was 102%.

As for `CO[C@@]12[C@H](COC(N)=O)C3=C(C(=O)C(C)=C(N)C3=O)N1C[C@@H]1N[C@@H]12` [Mitomycin C] (10000 nM), the normalised viability in assay [1] was 42.6%; in [2], -0.46%; in assay [3], 4.34%; in [4], 2.67%; in [5] it was 5.36%; in assay [6], 1.89%.

Take `C=CCn1c(=O)c2cnc(Nc3ccc(N4CCN(C)CC4)cc3)nc2n1-c1cccc(C(C)(C)O)n1` [MK1775] (10000 nM): the normalised viability in assay [1] is 16%; in [2], 2.68%; in assay [3], 2.98%; in assay [4] it was 17.4%; in assay [5], 15.2%; in assay [6] it was 5.88%.

As to `CC(O)(CS(=O)(=O)c1ccc(F)cc1)C(=O)Nc1ccc(C#N)c(C(F)(F)F)c1` (configuration not stated) [Bicalutamide] (1000 nM), the normalised response in [7] stood at 107%; in assay [8], 99%; in assay [9], 109%; in assay [10], 102%; in [11], 110%.

Take `Cc1cn(-c2cc(NC(=O)c3ccc(C)c(Nc4nccc(-c5cccnc5)n4)c3)cc(C(F)(F)F)c2)cn1` [Nilotinib] (10000 nM): the normalised viability was 84.2% and 86.2% in [1]; 102% and 86.8% in assay [2]; 103% and 100% in [3]; 86.3% and 84.9% in assay [4]; 106% and 94.7% in assay [5]; 89.7% and 84.6% in [6].

Turning to `CCNC(=O)CCC/C=C\C[C@@H]1[C@@H](/C=C/[C@@H](O)CCc2ccccc2)[C@H](O)C[C@@H]1O` [Bimatoprost] (5500 nM), the normalised viability came out at 115% in assay [1]; 107% in assay [2]; 114% in [3]; 92.2% in assay [4]; 106% in assay [5]; 92.2% in assay [6].

On to `COc1ccc(S(=O)(=O)Nc2cccnc2Nc2ccc(O)cc2)cc1` [ABT-751] (10000 nM), for which the normalised viability in assay [1] amounted to 32.6%; in assay [2], 6.9%; in [3] it was 6.42%; in assay [4], 23.6%; in assay [5] it was 20.6%; in assay [6], 12.7%.

On to `Nc1ccn([C@@H]2O[C@H](CO)[C@@H](O)C2(F)F)c(=O)n1` [Gemcitabine] (100 nM), for which the normalised response in [7] was 32.6%; in assay [8] it was 74.5%; in assay [9] it was 41.5%; in assay [10], 101%; in [11], 28.4%.

On to `C/C(=C\c1csc(C)n1)[C@@H]1C[C@@H]2O[C@]2(C)CCC[C@H](C)[C@H](O)[C@@H](C)C(=O)C(C)(C)[C@@H](O)CC(=O)N1` [Ixabepilone] (1000 nM), for which the normalised viability amounted to 37% in assay [1]; 21.5% in assay [2]; 57.9% in assay [3]; 36.9% in [4]; 5.47% in assay [5]; 20.9% in assay [6].

With `Nc1ccn([C@@H]2O[C@H](CO)[C@@H](O)C2(F)F)c(=O)n1` [Gemcitabine] (1000 nM), the normalised viability in [1] is 100%; in assay [2] it was 11.2%; in assay [3] it was 7.26%; in assay [4] it was 5.03%; in [5] it was 1.2%; in assay [6], 0.25%.

The values are drawn from the supplement of paper PMC4862054.
